Values belong to the molecule of their own block, whether it stands above or below them.
What was measured:
[1] = target: Serine/threonine-protein kinase pim-1 (Homo sapiens, UniProt P11309); experiment: Inhibition of N-terminus His-tagged human PIM1 expressed in Escherichia coli using AKRRRLSA as substrate after 1 to 2 hrs by chemiluminescence assay
[2] = target: T1, Cell division cycle 7-related protein kinase (Homo sapiens, UniProt O00311); experiment: Inhibition of N-terminus Myc-tagged human CDC7 expressed in Escherichia coli by chemiluminescence assay in presence of ATP
[3] = target: T1, Cell division cycle 7-related protein kinase; experiment: Inhibition of CDC7 in human MDA-MB-231T cells assessed as inhibition of MCM2 phosphorylation at Ser53 after 4 hrs; format: cell-based
[4] = target: Casein kinase II alpha/beta (Homo sapiens, UniProt P68400); experiment: Inhibition of human tertrameric CK2alphabeta holoenzyme using casein as substrate after 1 to 2 hrs by chemiluminescence assay in presence of 2 uM ATP; format: protein-complex assay
[5] = Plasma concentration in mouse at 100 mg/kg, po measured after 4 hrs; format: ADME, organism-based; parameters: dose 100 mg/kg, route oral
[6] = Plasma concentration in mouse at 100 mg/kg, po measured after 1 hr; format: ADME, organism-based; parameters: dose 100 mg/kg, route oral
Cytochrome P450 2C19 = Cytochrome P450 2C19 (Homo sapiens, UniProt P33261); experiment: Inhibition of CYP2C19; format: ADME
Cytochrome P450 1A2 = target: T2, Cytochrome P450 1A2 (Homo sapiens, UniProt P05177); experiment: Inhibition of CYP1A2; format: ADME
T2 sequence (P05177 whole entry): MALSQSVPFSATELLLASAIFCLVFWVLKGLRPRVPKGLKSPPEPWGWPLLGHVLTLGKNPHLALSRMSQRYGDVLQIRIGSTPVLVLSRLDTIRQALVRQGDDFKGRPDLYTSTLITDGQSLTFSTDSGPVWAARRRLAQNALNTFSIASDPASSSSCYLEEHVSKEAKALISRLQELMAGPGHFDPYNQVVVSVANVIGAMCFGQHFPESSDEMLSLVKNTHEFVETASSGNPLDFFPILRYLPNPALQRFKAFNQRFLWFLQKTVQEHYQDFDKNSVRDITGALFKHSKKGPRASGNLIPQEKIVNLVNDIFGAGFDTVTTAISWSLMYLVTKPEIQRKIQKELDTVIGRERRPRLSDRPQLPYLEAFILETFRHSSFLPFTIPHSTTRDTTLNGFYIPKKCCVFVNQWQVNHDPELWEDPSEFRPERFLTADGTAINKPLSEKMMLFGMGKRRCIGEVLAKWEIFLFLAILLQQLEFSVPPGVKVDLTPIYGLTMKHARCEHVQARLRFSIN

[7] = Plasma concentration in athymic nude mouse bearing human Caco2 cells at 100 mg/kg, po measured after 4 hrs; format: ADME, organism-based, Caco-2; parameters: dose 100 mg/kg, route oral
[8] = Cmax in rat at 3 mg/kg, po; format: ADME, organism-based; parameters: dose 3 mg/kg, route oral; settings: in vivo
Caco-2 [9] = experiment: Induction of apoptosis in human Caco2 cells assessed as increase in caspase 3/7 activity; format: functional, cell-based
Mus musculus [10] = experiment: Inhibition of CDC7-mediated MCM2 phosphorylation at Ser40/41 in human Caco2 cells xenografted in athymic nude mouse at 3 mg/kg, po after 4 hrs by Western blot analysis; format: functional; settings: Caco-2, 4 h
Mus musculus [11] = experiment: Toxicity in athymic nude mouse bearing human Caco2 cells assessed as decrease in body weight at 3 mg/kg, po QD administered for 14 days; format: organism-based, Caco-2; parameters: dose 3 mg/kg, route oral; scale not given: the % may be the effect or the level left; settings: in vivo, 336 h
Caco-2 [12] = experiment: Antitumor activity against human Caco2 cells xenografted in athymic nude mouse assessed as tumor regression at 100 mg/kg, po Q2D administered for 14 days; format: functional
Cytochrome P450 2C9 = Cytochrome P450 2C9 (Homo sapiens, UniProt P11712); experiment: Inhibition of CYP2C9; format: ADME
Cytochrome P450 2D6 = Cytochrome P450 2D6 (Homo sapiens, UniProt P10635); experiment: Inhibition of CYP2D6; format: ADME
Caco-2 [13] = experiment: Antitumor activity against human Caco2 cells xenografted in athymic nude mouse assessed as tumor growth inhibition at 10 mg/kg, po QD administered for 14 days; format: functional; settings: Caco-2, 336 h, read-out: GI
Cytochrome P450 3A4 = Cytochrome P450 3A4 (Homo sapiens, UniProt P08684); experiment: Inhibition of CYP3A4; format: ADME
Caco-2 [14] = experiment: Antitumor activity against human Caco2 cells xenografted in athymic nude mouse assessed as tumor growth inhibition at 30 mg/kg, po BID administered for 14 days; format: functional; settings: Caco-2, 336 h, read-out: GI
[15] = Plasma concentration in athymic nude mouse bearing human Caco2 cells at 3 mg/kg, po measured after 4 hrs; format: ADME, organism-based, Caco-2; parameters: dose 3 mg/kg, route oral
Caco-2 [16] = experiment: Antitumor activity against human Caco2 cells xenografted in athymic nude mouse assessed as tumor growth inhibition at 3 mg/kg, po QD administered for 14 days; format: functional; settings: Caco-2, 336 h, read-out: GI
[17] = target: T1, Cell division cycle 7-related protein kinase; experiment: Inhibition of CDC7 in human Caco2 cells assessed as inhibition of MCM2 phosphorylation at Ser53 after 4 hrs; format: cell-based, Caco-2
[18] = Plasma concentration in athymic nude mouse bearing human Caco2 cells at 10 mg/kg, po measured after 4 hrs; format: ADME, organism-based, Caco-2; parameters: dose 10 mg/kg, route oral
Caco-2 [19] = experiment: Antitumor activity against human Caco2 cells xenografted in athymic nude mouse assessed as tumor regression at 100 mg/kg, po QD administered for 14 days; format: functional
[20] = Clearance in rat; format: ADME, organism-based; settings: in vivo
Caco-2 [21] = experiment: Antiproliferative activity against human Caco2 cells assessed as decrease in cell viability after 3 days by Cell Titer-Glo assay; format: functional, cell-based; settings: Caco-2, 72 h
Mus musculus [22] = experiment: Inhibition of CDC7-mediated MCM2 phosphorylation at Ser40/41 in human Caco2 cells xenografted in po dosed athymic nude mouse by after 4 hrs Western blot analysis; format: functional; settings: Caco-2, po
Mus musculus [23] = experiment: Toxicity in athymic nude mouse bearing human Caco2 cells assessed as decrease in body weight at 30 mg/kg, po QD administered for 14 days; format: organism-based, Caco-2; parameters: dose 30 mg/kg, route oral; scale not given: the % may be the effect or the level left; settings: in vivo, 336 h
[24] = Plasma concentration in athymic nude mouse bearing human Caco2 cells at 30 mg/kg, po measured after 4 hrs; format: ADME, organism-based, Caco-2; parameters: dose 30 mg/kg, route oral
Caco-2 [25] = experiment: Antitumor activity against human Caco2 cells xenografted in athymic nude mouse assessed as tumor growth inhibition at 30 mg/kg, po QD administered for 14 days; format: functional; settings: Caco-2, 336 h, read-out: GI
[26] = AUC in rat at 3 mg/kg, po; format: ADME, organism-based; parameters: dose 3 mg/kg, route oral; settings: plasma
Caco-2 [27] = experiment: Antitumor activity against human Caco2 cells xenografted in athymic nude mouse assessed as tumor regression at 30 mg/kg, po BID administered for 14 days; format: functional
Mus musculus [28] = experiment: Toxicity in athymic nude mouse bearing human Caco2 cells assessed as decrease in body weight at 100 mg/kg, po Q2D administered for 14 days; format: organism-based, Caco-2; parameters: dose 100 mg/kg, route oral; scale not given: the % may be the effect or the level left; settings: in vivo, 336 h
Caco-2 [29] = experiment: Antitumor activity against human Caco2 cells xenografted in athymic nude mouse assessed as tumor growth inhibition at 100 mg/kg, po Q2D administered for 14 days; format: functional; settings: Caco-2, 336 h, read-out: GI
[30] = Drug uptake in tumor of Caco2 cells xenografted athymic nude mouse at 10 mg/kg, po measured after 4 hrs; format: ADME, organism-based, Neoplasm, Caco-2; parameters: dose 10 mg/kg, route oral; settings: read-out: Drug uptake
[31] = Volume of distribution at steady state in rat; format: ADME, organism-based; settings: in vivo, read-out: Vdss
Mus musculus [32] = experiment: Toxicity in athymic nude mouse bearing human Caco2 cells assessed as decrease in body weight at 30 mg/kg, po BID administered for 14 days; format: organism-based, Caco-2; parameters: dose 30 mg/kg, route oral; scale not given: the % may be the effect or the level left; settings: in vivo, 336 h
Mus musculus [33] = experiment: Toxicity in athymic nude mouse bearing human Caco2 cells assessed as decrease in body weight at 10 mg/kg, po QD administered for 14 days; format: organism-based, Caco-2; parameters: dose 10 mg/kg, route oral; scale not given: the % may be the effect or the level left; settings: in vivo, 336 h
[34] = Drug uptake in tumor of Caco2 cells xenografted athymic nude mouse at 3 mg/kg, po measured after 4 hrs; format: ADME, organism-based, Neoplasm, Caco-2; parameters: dose 3 mg/kg, route oral; settings: read-out: Drug uptake
Caco-2 [35] = experiment: Antiproliferative activity against human Caco2 cells after 3 days by BrdU incorporation assay; format: functional, cell-based; settings: Caco-2, 72 h
[36] = Drug uptake in tumor of Caco2 cells xenografted athymic nude mouse at 100 mg/kg, po measured after 4 hrs; format: ADME, organism-based, Neoplasm, Caco-2; parameters: dose 100 mg/kg, route oral; settings: read-out: Drug uptake
[37] = Half life in rat; format: ADME, organism-based; settings: in vivo
Mus musculus [38] = experiment: Toxicity in athymic nude mouse bearing human Caco2 cells assessed as decrease in body weight at 100 mg/kg, po QD administered for 14 days; format: organism-based, Caco-2; parameters: dose 100 mg/kg, route oral; scale not given: the % may be the effect or the level left; settings: in vivo, 336 h
Caco-2 [39] = experiment: Antiproliferative activity against human Caco2 cells assessed as inhibition of anchorage-independent growth in soft agar; format: functional, cell-based
[40] = Oral bioavailability in rat at 3 mg/kg; format: ADME, organism-based; settings: in vivo
[41] = Drug uptake in tumor of Caco2 cells xenografted athymic nude mouse at 30 mg/kg, po measured after 4 hrs; format: ADME, organism-based, Neoplasm, Caco-2; parameters: dose 30 mg/kg, route oral; settings: read-out: Drug uptake
Caco-2 [42] = experiment: Antitumor activity against human Caco2 cells xenografted in athymic nude mouse assessed as tumor growth inhibition at 100 mg/kg, po QD administered for 14 days; format: functional; settings: Caco-2, 336 h, read-out: GI

Sequence of Serine/threonine-protein kinase pim-1 (P11309 whole entry): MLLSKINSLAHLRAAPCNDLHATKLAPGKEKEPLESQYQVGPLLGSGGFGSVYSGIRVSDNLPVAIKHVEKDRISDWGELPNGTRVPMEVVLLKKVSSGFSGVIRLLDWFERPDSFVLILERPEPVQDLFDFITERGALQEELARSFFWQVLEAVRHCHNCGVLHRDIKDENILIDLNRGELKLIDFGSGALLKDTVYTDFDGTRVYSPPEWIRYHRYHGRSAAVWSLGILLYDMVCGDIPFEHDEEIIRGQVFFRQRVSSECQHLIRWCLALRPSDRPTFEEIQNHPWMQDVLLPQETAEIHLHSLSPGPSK
T1 sequence (O00311 whole entry): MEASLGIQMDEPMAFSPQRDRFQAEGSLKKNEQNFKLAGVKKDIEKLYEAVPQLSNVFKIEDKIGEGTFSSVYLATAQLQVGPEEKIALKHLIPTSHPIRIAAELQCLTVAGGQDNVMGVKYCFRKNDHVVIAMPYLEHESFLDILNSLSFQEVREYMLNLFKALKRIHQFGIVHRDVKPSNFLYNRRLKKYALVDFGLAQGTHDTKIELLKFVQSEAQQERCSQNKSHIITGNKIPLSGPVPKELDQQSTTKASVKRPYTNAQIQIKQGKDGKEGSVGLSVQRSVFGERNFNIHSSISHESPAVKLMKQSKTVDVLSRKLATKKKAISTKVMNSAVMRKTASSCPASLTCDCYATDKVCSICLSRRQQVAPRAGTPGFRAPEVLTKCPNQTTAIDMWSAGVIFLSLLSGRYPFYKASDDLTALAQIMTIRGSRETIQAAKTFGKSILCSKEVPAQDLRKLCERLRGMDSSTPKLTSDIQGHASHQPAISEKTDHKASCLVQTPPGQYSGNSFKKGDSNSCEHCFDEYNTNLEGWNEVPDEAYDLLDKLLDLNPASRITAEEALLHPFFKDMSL
Sequence of Casein kinase II alpha/beta (P67870 whole entry): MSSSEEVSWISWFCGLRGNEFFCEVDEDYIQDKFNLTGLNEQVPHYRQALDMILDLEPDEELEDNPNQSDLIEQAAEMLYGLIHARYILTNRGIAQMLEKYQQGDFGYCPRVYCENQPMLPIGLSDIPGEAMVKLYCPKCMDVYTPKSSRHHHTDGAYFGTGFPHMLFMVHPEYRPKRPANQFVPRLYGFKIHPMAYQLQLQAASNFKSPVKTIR
Sequence of Casein kinase II alpha/beta (P68400 whole entry): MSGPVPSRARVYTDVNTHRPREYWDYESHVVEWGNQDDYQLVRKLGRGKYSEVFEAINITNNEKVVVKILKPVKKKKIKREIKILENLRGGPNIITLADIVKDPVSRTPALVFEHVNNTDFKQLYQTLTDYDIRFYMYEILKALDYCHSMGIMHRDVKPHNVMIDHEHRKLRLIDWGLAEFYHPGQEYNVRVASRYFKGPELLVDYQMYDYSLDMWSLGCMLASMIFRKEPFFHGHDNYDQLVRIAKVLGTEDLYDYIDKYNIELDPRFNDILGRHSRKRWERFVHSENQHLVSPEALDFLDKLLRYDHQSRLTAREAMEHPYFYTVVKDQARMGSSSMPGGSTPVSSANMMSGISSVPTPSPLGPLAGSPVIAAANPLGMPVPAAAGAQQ
Sequence of Cytochrome P450 3A4 (P08684 whole entry): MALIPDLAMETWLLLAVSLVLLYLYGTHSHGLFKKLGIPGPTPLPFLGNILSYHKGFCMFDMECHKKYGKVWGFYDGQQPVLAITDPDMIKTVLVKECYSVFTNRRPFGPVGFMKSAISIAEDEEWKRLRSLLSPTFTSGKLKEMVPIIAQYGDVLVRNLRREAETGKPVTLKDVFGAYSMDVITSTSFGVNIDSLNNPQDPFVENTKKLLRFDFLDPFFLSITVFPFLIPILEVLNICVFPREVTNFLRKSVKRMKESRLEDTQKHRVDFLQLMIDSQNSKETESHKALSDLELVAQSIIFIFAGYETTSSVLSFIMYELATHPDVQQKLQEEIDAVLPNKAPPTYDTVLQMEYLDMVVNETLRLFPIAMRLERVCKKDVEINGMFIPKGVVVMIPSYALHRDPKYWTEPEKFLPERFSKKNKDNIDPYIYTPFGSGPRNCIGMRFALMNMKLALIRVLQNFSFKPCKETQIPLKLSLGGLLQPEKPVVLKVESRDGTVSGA
Sequence of Cytochrome P450 2C9 (P11712 whole entry): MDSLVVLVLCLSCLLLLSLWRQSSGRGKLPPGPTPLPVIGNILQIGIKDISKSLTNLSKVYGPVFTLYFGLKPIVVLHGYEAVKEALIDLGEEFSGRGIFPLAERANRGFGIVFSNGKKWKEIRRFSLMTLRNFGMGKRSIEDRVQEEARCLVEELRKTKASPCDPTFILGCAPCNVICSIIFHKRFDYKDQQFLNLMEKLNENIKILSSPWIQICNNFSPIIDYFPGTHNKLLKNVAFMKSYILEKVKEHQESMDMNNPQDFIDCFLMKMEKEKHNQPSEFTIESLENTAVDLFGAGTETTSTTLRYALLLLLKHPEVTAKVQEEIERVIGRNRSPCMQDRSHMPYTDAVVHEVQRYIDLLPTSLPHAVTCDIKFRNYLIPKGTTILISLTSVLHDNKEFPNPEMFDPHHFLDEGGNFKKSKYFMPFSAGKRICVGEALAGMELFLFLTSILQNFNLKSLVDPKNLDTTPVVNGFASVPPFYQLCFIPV
Sequence of Cytochrome P450 2C19 (P33261 whole entry): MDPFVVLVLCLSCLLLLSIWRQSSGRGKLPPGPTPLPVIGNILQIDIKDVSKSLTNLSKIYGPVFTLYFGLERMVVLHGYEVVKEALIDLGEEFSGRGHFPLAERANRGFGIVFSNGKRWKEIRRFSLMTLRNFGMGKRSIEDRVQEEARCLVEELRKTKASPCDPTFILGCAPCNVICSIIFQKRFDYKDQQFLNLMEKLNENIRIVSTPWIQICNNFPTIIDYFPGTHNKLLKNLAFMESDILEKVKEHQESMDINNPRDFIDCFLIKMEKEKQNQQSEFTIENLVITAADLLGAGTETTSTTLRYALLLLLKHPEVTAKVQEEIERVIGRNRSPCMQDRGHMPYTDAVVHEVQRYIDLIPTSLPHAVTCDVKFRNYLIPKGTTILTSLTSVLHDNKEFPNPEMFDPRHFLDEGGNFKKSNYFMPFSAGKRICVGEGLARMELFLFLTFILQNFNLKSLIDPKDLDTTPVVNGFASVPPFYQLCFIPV
Sequence of Cytochrome P450 2D6 (P10635 whole entry): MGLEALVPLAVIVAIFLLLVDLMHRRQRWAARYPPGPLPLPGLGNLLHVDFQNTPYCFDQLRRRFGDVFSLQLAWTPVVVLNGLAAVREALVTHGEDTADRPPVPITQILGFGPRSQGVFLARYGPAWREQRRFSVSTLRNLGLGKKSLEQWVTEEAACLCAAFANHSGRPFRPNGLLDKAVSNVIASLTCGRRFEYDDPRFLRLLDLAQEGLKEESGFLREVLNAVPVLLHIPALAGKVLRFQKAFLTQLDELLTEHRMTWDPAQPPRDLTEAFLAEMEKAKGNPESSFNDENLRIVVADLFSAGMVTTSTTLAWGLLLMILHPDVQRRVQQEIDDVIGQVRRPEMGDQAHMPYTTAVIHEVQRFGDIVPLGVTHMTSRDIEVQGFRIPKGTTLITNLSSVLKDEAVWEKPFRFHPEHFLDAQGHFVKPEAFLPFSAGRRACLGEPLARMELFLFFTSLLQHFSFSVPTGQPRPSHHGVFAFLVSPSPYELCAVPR

Compound: CN1CCC[C@H]1c1nc2c(oc3ccc(Br)cc32)c(=O)[nH]1
IC50 [1]: 11 nM | IC50 [2]: 7.3 nM | IC50 [3]: 802 nM | IC50 [4]: 63 nM

Compound: O=c1[nH]c([C@@H]2CCCN2)nc2c1oc1ccc(Cl)cc12
IC50 (Cytochrome P450 2C19): > 50000 nM | IC50 (Cytochrome P450 1A2): 6900 nM | concentration at 4 h [7]: 186 µM | Cmax [8]: 8.61 µM | EC50 (Caco-2 [9]): 2290 nM | concentration at 4 h [5]: 81 µM | inhibition in vivo at 3 mg/kg (Mus musculus [10]): 70% | Activity (Mus musculus [11]): 0.5% | Activity (Caco-2 [12]): 21% | IC50 [1]: 42 nM | IC50 (Cytochrome P450 2C9): > 50000 nM | IC50 (Cytochrome P450 2D6): > 50000 nM | inhibition in vivo at 10 mg/kg (Caco-2 [13]): 36% | IC50 [2]: 3.4 nM | IC50 (Cytochrome P450 3A4): > 50000 nM | inhibition in vivo at 30 mg/kg (Caco-2 [14]): > 100% | concentration at 4 h [15]: 11 µM | IC50 [3]: 118 nM | inhibition in vivo at 3 mg/kg (Caco-2 [16]): 8.7% | IC50 [17]: 140 nM | concentration at 4 h [18]: 40.1 µM | Activity (Caco-2 [19]): 70% | clearance [20]: 1.95 mL/min/kg | IC50 (Caco-2 [21]): 2140 nM | ED50 (Mus musculus [22]): < 3 mg/kg | Activity (Mus musculus [23]): 8.3% | concentration at 4 h [24]: 82.2 µM | inhibition in vivo at 30 mg/kg (Caco-2 [25]): 83% | AUC [26]: 75 µM·h | Activity (Caco-2 [27]): 32% | IC50 [4]: 215 nM | Activity (Mus musculus [28]): 4.5% | inhibition in vivo at 100 mg/kg (Caco-2 [29]): > 100% | concentration at 4 h [30]: 13.1 µM | Vd [31]: 0.55 L/kg | Activity (Mus musculus [32]): 6.4% | Activity (Mus musculus [33]): 3.4% | concentration at 1 h [6]: 141 µM | concentration at 4 h [34]: 3.2 µM | IC50 (Caco-2 [35]): 2680 nM | concentration at 4 h [36]: 71.4 µM | half-life [37]: 2.32 h | Activity (Mus musculus [38]): 4.7% | IC50 (Caco-2 [39]): 715 nM | bioavailability [40]: 95% | concentration at 4 h [41]: 32.1 µM | inhibition in vivo at 100 mg/kg (Caco-2 [42]): > 100%

Compound: COc1ccc2oc3c(=O)[nH]c([C@@H]4CCCN4)nc3c2c1
IC50 [1]: 77 nM | IC50 [2]: 6.1 nM | IC50 [3]: 1370 nM | IC50 [4]: 238 nM

Further lines, results first:

IC50 [1]: 73 nM | IC50 [2]: 9.1 nM | IC50 [3]: 440 nM | IC50 [4]: 418 nM
Compound: O=c1[nH]c([C@@H]2C[C@@H](O)CN2)nc2c1oc1ccc(Br)cc12

concentration at 4 h [5]: 46 µM | IC50 [1]: 46 nM | IC50 [2]: 3.7 nM | IC50 [3]: 82 nM | IC50 [4]: 238 nM | concentration at 1 h [6]: 82 µM
Compound: O=c1[nH]c([C@@H]2C[C@@H](F)CN2)nc2c1oc1ccc(Br)cc12

IC50 [1]: 11 nM | IC50 [2]: 11 nM | IC50 [3]: 566 nM | IC50 [4]: 3620 nM
Compound: O=c1[nH]c([C@@H]2C[C@H](F)CN2)nc2c1oc1ccc(Br)cc12

From ChEMBL document CHEMBL2029277, “Discovery of XL413, a potent and selective CDC7 inhibitor” (Bioorg Med Chem Lett, 2012)
